Results from ChEMBL document CHEMBL4350951, “Emerging and Re-Emerging Warheads for Targeted Covalent Inhibitors: Applications in Medicinal Chemistry and Chemical Biology” (J Med Chem, 2019).

Tests used:
[1] = Half life of the compound at pH 7.5; assay type: physicochemical
[2] = Half life in mouse at 20 mg/kg, ip; assay type: ADME, organism-based; settings: in vivo
[3] = Cysteine reactivity assessed as cysteine oxidation; assay type: physicochemical
[4] = molecular target: T1, m7GpppX diphosphatase (Homo sapiens, UniProt Q96C86); assay: Inhibition of DcpS (unknown origin) using m7GpppA as substrate by ELISA
T1 sequence (Q96C86 whole entry): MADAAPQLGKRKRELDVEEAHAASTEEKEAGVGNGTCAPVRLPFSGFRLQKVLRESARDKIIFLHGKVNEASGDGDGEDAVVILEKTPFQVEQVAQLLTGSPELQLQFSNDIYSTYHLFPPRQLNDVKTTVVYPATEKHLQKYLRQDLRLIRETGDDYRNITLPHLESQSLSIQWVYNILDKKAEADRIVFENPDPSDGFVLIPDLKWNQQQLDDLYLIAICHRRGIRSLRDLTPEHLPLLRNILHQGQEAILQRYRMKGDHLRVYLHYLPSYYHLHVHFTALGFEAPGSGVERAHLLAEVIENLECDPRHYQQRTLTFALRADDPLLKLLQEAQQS

[5] = molecular target: Serine/threonine-protein kinase PLK1 (Homo sapiens, UniProt P53350); assay: Inhibition of PLK1 (unknown origin)
Chain of Serine/threonine-protein kinase PLK1 (P53350 whole entry): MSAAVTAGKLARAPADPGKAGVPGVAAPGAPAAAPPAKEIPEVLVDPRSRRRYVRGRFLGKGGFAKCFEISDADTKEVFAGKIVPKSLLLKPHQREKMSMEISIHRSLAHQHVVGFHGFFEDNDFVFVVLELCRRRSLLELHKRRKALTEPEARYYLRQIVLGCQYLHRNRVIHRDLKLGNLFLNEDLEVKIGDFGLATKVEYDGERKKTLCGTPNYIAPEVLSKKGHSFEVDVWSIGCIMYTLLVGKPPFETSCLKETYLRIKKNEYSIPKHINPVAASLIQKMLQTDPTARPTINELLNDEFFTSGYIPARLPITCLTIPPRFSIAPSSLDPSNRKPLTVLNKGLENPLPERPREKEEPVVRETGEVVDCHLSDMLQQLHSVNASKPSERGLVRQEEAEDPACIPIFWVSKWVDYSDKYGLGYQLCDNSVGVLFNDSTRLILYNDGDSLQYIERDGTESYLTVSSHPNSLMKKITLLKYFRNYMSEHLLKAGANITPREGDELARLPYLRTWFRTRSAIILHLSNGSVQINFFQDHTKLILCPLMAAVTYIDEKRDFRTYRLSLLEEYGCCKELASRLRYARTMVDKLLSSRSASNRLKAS

[6] = molecular target: T2, Induced myeloid leukemia cell differentiation protein Mcl-1 (Homo sapiens, UniProt Q07820); assay: Binding kinetics to MCl-1 (unknown origin) assessed as dissociation rate constant for state two
T2 sequence (Q07820 whole entry): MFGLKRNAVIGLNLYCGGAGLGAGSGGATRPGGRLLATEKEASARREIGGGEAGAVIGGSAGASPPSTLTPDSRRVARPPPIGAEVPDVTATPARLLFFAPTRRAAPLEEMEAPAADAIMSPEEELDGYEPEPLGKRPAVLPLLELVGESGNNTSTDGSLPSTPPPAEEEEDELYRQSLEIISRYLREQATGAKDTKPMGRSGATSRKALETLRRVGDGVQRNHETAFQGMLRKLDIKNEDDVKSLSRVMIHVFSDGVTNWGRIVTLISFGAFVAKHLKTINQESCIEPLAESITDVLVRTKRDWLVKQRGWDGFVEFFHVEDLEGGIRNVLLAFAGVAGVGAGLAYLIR

[7] = molecular target: T2, Induced myeloid leukemia cell differentiation protein Mcl-1; assay: Binding kinetics to MCl-1 (unknown origin) assessed as dissociation rate constant for state one
[8] = molecular target: SRSF protein kinase 1 (Homo sapiens, UniProt Q96SB4); assay: Inhibition of SRPK1 (unknown origin) by TR-FRET assay
Chain of SRSF protein kinase 1 (Q96SB4 whole entry): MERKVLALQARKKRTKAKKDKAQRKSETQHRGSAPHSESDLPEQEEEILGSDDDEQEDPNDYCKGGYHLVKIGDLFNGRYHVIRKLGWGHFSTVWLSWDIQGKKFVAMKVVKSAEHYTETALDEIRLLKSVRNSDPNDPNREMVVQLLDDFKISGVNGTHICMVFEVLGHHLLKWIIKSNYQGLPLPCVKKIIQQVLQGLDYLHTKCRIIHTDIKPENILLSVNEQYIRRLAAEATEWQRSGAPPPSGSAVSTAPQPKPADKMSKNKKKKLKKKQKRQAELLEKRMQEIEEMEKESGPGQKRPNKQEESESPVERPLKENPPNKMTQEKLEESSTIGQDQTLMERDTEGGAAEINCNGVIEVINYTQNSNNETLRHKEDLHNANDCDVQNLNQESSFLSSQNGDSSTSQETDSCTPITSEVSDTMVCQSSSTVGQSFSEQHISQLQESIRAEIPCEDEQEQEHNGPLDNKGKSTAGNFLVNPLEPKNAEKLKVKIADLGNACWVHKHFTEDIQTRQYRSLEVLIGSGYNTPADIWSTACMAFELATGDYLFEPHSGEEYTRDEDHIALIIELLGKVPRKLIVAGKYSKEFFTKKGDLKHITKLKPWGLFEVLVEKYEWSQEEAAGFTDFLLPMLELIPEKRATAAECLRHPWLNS

[9] = Half life of the compound in aqueous buffer at pH 7.2; assay type: physicochemical
[10] = molecular target: T3, Peptidyl-prolyl cis-trans isomerase FKBP1A (Homo sapiens, UniProt P62942); assay: Inhibition of recombinant human FKBP12 after 24 hrs by MS/MS analysis
T3 sequence (P62942 whole entry): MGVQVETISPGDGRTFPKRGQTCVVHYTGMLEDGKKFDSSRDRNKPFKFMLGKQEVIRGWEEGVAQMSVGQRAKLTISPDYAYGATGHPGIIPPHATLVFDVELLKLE

[11] = molecular target: T3, Peptidyl-prolyl cis-trans isomerase FKBP1A; assay: Inhibition of recombinant human FKBP12 assessed as ratio of Kinact to Ki after 24 hrs by MS/MS analysis
[12] = molecular target: T4, Phosphatidylinositol 4,5-bisphosphate 3-kinase catalytic subunit delta isoform (Homo sapiens, UniProt O00329); assay: (§1) Inhibition of PI3Kdelta (unknown origin)
T4 sequence (O00329 whole entry): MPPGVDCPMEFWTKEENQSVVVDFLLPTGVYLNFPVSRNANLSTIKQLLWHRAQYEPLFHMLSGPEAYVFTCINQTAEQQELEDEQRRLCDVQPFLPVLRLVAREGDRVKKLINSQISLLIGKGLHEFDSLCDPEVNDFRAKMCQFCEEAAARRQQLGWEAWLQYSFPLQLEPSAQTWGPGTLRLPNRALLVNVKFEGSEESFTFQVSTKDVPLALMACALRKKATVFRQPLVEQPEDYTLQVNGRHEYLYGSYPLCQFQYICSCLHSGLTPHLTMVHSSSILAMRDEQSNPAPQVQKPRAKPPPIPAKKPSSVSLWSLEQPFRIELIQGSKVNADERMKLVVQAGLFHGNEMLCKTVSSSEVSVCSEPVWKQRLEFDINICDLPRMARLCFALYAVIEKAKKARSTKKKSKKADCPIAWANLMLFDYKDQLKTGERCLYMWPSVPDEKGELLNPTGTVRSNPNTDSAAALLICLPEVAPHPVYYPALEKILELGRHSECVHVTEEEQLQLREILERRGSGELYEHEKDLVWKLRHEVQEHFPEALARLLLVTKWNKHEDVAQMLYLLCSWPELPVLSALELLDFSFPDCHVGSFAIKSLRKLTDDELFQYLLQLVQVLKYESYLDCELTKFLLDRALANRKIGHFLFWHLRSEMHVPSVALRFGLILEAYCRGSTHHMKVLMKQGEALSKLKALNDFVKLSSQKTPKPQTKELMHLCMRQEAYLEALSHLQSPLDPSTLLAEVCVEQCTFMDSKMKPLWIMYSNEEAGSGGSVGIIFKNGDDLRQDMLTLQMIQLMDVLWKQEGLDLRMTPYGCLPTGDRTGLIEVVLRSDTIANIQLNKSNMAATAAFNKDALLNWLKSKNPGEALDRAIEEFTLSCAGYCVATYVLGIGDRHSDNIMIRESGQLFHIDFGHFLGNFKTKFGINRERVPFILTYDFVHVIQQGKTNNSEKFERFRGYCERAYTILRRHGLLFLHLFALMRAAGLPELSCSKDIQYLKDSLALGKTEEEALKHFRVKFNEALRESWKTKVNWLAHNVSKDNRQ

[13] = cells; settings: Homo sapiens, MOLP-8
Description: Cytotoxicity against human MOLP8 cells

[14] = molecular target: Glutathione S-transferase P (Homo sapiens) (UniProt P09211); assay: Inhibition of GSTP1 (unknown origin) assessed as ratio of Kinact to Ki by MS/MS analysis
Chain of Glutathione S-transferase P (Homo sapiens) (P09211 2-210 limits assumed): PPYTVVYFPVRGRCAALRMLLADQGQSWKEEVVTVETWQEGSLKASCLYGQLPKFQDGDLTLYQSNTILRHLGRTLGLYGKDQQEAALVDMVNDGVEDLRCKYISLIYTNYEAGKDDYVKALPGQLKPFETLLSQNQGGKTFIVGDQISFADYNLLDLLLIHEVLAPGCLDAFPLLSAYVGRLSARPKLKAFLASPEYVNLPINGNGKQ

[15] = system: Hsp90 (human); assay: Inhibition of human Hsp90 assessed as ratio of Kinact to Ki by MS/MS analysis
[16] = system: Hsp90 (human); assay: Inhibition of human Hsp90 by MS/MS analysis
[17] = Dissociation constant, pKa of the compound; assay type: physicochemical
[18] = system: Mycobacterium tuberculosis; assay: Inhibition of Mycobacterium tuberculosis ICL1 assessed as ratio of Kinact to Ki
[19] = molecular target: ALK tyrosine kinase receptor (Homo sapiens, UniProt Q9UM73)
Chain of ALK tyrosine kinase receptor (Q9UM73 whole entry, canonical isoform): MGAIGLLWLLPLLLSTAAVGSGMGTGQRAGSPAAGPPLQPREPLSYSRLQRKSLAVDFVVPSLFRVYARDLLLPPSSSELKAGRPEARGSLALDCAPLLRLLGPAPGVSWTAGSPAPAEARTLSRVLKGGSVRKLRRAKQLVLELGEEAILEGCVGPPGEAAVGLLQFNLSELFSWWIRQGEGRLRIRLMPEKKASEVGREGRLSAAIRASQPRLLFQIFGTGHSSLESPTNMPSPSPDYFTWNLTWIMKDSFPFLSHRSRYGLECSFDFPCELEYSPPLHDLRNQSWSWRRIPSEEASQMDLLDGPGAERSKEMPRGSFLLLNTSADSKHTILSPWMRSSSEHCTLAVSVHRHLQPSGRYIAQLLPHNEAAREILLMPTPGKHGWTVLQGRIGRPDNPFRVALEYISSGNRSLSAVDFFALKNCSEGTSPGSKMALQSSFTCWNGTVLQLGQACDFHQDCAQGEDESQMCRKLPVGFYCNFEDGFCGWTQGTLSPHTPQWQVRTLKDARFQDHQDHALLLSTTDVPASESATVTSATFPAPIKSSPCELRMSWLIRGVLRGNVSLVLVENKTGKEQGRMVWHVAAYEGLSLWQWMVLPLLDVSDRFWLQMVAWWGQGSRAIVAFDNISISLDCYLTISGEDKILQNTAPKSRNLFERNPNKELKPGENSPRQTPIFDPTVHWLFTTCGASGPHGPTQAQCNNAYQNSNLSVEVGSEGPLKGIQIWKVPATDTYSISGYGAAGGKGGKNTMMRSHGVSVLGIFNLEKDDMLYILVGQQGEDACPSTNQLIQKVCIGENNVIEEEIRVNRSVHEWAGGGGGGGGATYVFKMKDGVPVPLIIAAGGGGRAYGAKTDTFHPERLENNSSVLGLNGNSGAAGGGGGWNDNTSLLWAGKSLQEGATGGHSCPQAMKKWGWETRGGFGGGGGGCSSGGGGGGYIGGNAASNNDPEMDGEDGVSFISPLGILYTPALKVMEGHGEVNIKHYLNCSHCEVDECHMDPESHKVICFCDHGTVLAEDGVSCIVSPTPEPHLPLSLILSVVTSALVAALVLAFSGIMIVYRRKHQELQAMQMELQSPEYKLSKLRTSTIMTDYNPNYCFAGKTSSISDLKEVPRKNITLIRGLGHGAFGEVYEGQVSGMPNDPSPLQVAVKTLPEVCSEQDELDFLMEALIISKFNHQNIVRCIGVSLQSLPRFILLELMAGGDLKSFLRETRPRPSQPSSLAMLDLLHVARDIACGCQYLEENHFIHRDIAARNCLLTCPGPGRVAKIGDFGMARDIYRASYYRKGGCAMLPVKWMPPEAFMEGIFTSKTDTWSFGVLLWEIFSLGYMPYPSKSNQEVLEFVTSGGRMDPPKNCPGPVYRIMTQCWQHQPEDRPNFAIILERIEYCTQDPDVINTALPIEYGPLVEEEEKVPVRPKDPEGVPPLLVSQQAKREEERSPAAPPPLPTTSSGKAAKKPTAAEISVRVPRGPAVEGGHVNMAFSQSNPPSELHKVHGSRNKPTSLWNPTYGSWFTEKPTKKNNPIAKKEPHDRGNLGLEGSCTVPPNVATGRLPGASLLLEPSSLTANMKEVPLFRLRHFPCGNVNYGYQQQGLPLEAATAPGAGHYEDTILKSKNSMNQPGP
Description: Inhibition of ALK (unknown origin) by TR-FRET assay

[20] = molecular target: T5, Phosphatidylinositol 4,5-bisphosphate 3-kinase catalytic subunit delta isoform (Homo sapiens) (UniProt O00329); assay: as §1
T5 sequence (whole entry): T4 sequence (O00329 whole entry)

[21] = Inhibition of PLK1 C675 mutant (unknown origin); parameters: species or system Homo sapiens
[22] = Half life in plasma (unknown origin); assay type: ADME, cell-free

O=S(=O)(F)c1ccccc1
half-life [1]: 0.0833 to 0.25 h

C#Cc1cccc(Oc2ccc(-c3nn([C@@H]4CCCN(C(=O)C=C)C4)c4ncnc(N)c34)cc2)c1
half-life [2]: 2.8 h

O=[N+]([O-])CS(=O)(=O)c1ccccc1
K [3]: 7.8 min⁻¹

Nc1nc(N)c2c(OCc3ccc(S(=O)(=O)F)cc3)cccc2n1
IC50 [4]: < 0.02 nM

NC(=O)c1sc2c([n+]1[O-])C(SC[C@H](N)C(=O)O)C(SC(F)(F)F)=CC2[N+](=O)[O-] (stereo partly drawn)
IC50 [5]: 400 nM

C#Cc1cccc(Oc2ccc(-c3nn([C@@H]4CCCN(C(=O)/C=C/C(=O)OC)C4)c4ncnc(N)c34)cc2)c1
half-life [2]: < 0.0333 h

Cc1c(-c2cccc3c(CCCOc4cccc5ccccc45)c(C(=O)O)[nH]c23)c(COc2ccc(B(O)O)c(C=O)c2)nn1C
koff [6]: 0.018 s⁻¹
koff [7]: 0.14 s⁻¹

CCc1cc2c(cc1N1CCC(N3CCOCC3)CC1)C(C)(C)c1[nH]c3cc(C#N)ccc3c1C2=O [ALECTINIB]
IC50 [8]: 11 nM

C#Cc1cccc(Oc2ccc(-c3nn([C@@H]4CCCN(C(=O)/C=C/C(=O)O)C4)c4ncnc(N)c34)cc2)c1
half-life [2]: 2.15 h

C[C@@H]1CCN(C(=O)CC#N)C[C@@H]1N(C)c1ncnc2[nH]ccc12 [TOFACITINIB]
K [3]: 0.4 min⁻¹

CC(=O)CS(=O)(=O)c1ccccc1
K [3]: 8.7 min⁻¹

O=C1CCN(Cc2ccccc2)C(=O)C1
K [3]: 86.4 min⁻¹

C#CCCCN1CCC(=O)CC1=O
K [3]: 1155 M⁻¹ s⁻¹

C#CCCCC1CCC(=O)CC1=O (stereo not drawn)
K [3]: 10 M⁻¹ s⁻¹

N#CCS(=O)(=O)c1ccccc1
K [3]: 78 min⁻¹

CCC(C)(C)C(=O)C(=O)N1CCCC[C@H]1C(=O)O[C@H](CCc1ccc(OC)c(OC)c1)c1cccc(OCC(=O)NCCCCCNC(=O)c2ccc(S(=O)(=O)N(CC#N)C(=O)CCCC[C@@H]3SC[C@@H]4NC(=O)N[C@@H]43)cc2)c1
half-life [9]: 43 h
Ki [10]: 210 nM
Kinact [10]: 6.1 ×10⁻³ /s
Ratio [11]: 2.9 ×10⁴ /M/s

O=C1CC(=O)c2ccccc21
K [3]: 22.9 min⁻¹

CC(=O)CC(C)=O
K [3]: 3.8 min⁻¹

COc1ncc(-c2cc(-c3ncc(CN4CCN(C(C)C)CC4)o3)c3cn[nH]c3c2)cc1C(=O)Oc1ccc(C)cc1C
Ki [12]: 7800 nM

O=C1CS(=O)(=O)Cc2ccccc21
K [3]: 54.9 min⁻¹

C#CCCCN1CC(=O)CC1=O
K [3]: 330 M⁻¹ s⁻¹

Cc1c(-c2cccc3c(CCCOc4cccc5ccccc45)c(C(=O)O)n(C)c23)c(COc2ccc(B(O)O)c(C=O)c2)nn1C
koff [6]: 0.01 s⁻¹
koff [7]: 0.13 s⁻¹
EC50 [13]: 75 nM

C#CCCCN(c1nc(Cl)nc(Cl)n1)[C@@H](CC(C)C)C(=O)OC
Ratio [14]: 3.12 M⁻¹ s⁻¹

C#CCCCN1CS(=O)(=O)CC1=O
K [3]: 20 M⁻¹ s⁻¹

O=C1CCCC(=O)C1
K [3]: 0.4 min⁻¹

N#CCN(C(=O)CCCC(=O)NCCCn1c(Sc2cc3c(cc2I)OCO3)nc2c(N)ncnc21)S(=O)(=O)c1ccccc1
Ratio [15]: 2.9 ×10⁴ /M/s
Ki [16]: 62 nM

O=C(O)CC=[N+]([O-])[O-]
pKa [17]: 9
Ratio [18]: 2.6 ×10⁴ /M/s

C#CCCCN1c2ccccc2C(=O)CS1(=O)=O
K [3]: 1700 M⁻¹ s⁻¹

CCc1cc2c(cc1-c1cccc(S(=O)(=O)F)c1)C(C)(C)c1[nH]c3cc(C#N)ccc3c1C2=O
IC50 [19]: 11 nM

O=C1CS(=O)(=O)N(Cc2ccccc2)c2ccccc21
K [3]: 190.5 min⁻¹

O=C1CC(=O)NC(=O)N1 [BARBITURIC ACID]
K [3]: 0.2 min⁻¹

COc1ncc(-c2cc(-c3ncc(CN4CCN(C(C)C)CC4)o3)c3cn[nH]c3c2)cc1C(=O)Oc1ccc([N+](=O)[O-])cc1
IC50 [12]: 0.617 nM
Ki [12]: 40 nM
Kinact [20]: 0.0055 s⁻¹

NC(=O)c1sc2c([n+]1[O-])C(SC[C@H](N)C(=O)O)C(C(F)(F)F)=CC2[N+](=O)[O-] (stereo partly drawn)
IC50 [21]: > 100000 nM
IC50 [5]: 2500 nM

C#Cc1cccc(Oc2ccc(-c3nn([C@@H]4CCCN(C(=O)/C=C/C(=O)OC(C)C)C4)c4ncnc(N)c34)cc2)c1
half-life [2]: < 0.0333 h

CS(=O)(=O)CC#N
K [3]: 28.6 min⁻¹

CN(C)c1ccc(S(=O)(=O)F)cc1
half-life [22]: 25.1 h

O=C1CCC(=O)C1
K [3]: 0.02 min⁻¹
